Test results as given in the NIST ThermoML archive (doi:10.1016/j.jct.2012.01.007).
Several values for one entry are separate records, joined by “and”; a condition that tells them apart may be missing. Equal values may be shown once.

Test: osmotic coefficient (dimensionless); mn = molality of the nth substance listed, in mol/kg
Settings: 298.15 K, Liquid, isopiestic method

CCCCCC[n+]1ccc(N(C)C)cc1.F[B-](F)(F)F [4-(dimethylamino)-1-hexylpyridinium tetrafluoroborate] + CCO
Settings	osmotic coefficient
m1 = 0	0.999
m1 = 0.3863	0.523
m1 = 0.4915	0.435
m1 = 0.6139	0.417
m1 = 0.7149	0.447
m1 = 0.7716	0.429
m1 = 1.225	0.413 and 0.431
m1 = 1.39	0.375
m1 = 1.495	0.39
m1 = 1.778	0.35
m1 = 1.799	0.409
m1 = 2.283	0.376
m1 = 2.753	0.378
m1 = 3.718	0.351
m1 = 4.128	0.37
m1 = 5.581	0.384

CCCCC[n+]1ccc(N(C)C)cc1.F[B-](F)(F)F [4-(dimethylamino)-1-pentylpyridinium tetrafluoroborate] + CCO
Settings	osmotic coefficient
m1 = 0	0.999
m1 = 0.4148	0.513
m1 = 0.4808	0.455
m1 = 0.5469	0.468
m1 = 0.568	0.397
m1 = 0.6869	0.376
m1 = 0.8468	0.359
m1 = 0.9582	0.335
m1 = 1.291	0.38
m1 = 1.757	0.331
m1 = 1.899	0.327
m1 = 2.515	0.327
m1 = 4.304	0.283
m1 = 5.313	0.288
m1 = 7.334	0.301

CCCC[n+]1ccc(N(C)C)cc1.F[B-](F)(F)F [4-(dimethylamino)-1-butylpyridinium tetrafluoroborate] + CCO
Settings	osmotic coefficient
m1 = 0	1
m1 = 0.3225	0.606
m1 = 0.333	0.526
m1 = 0.3357	0.6
m1 = 0.3459	0.506
m1 = 0.4422	0.468
m1 = 0.4806	0.429 and 0.445
m1 = 0.4942	0.418
m1 = 0.5101	0.42 and 0.404
m1 = 0.6548	0.383
m1 = 0.7459	0.394
m1 = 0.8064	0.365
m1 = 0.9658	0.343
m1 = 1.075	0.327
m1 = 1.154	0.339
m1 = 1.195	0.318
m1 = 1.289	0.325
m1 = 1.393	0.322
m1 = 1.613	0.321
m1 = 1.945	0.304
m1 = 2.716	0.316
m1 = 3.676	0.336
m1 = 3.763	0.326
m1 = 5.468	0.283
m1 = 7.248	0.218
